Measured values as given in publication PMC3961306, “Comparison of the Cancer Gene Targeting and Biochemical Selectivities of All Targeted Kinase Inhibitors Approved for Clinical Use” (PLoS ONE, 2014).

Assays:
Assay in all cases: Kinase profiling in a biochemical assay panel (mobility shift assays and ELISA), %-inhibition at 1 μM; selectivity entropy
[1] = biological target: T1, panel of more than 300 wild-type and mutant kinases (313 kinase panel) (Homo sapiens, UniProt Q08881); settings: kinase ITK; compound at 1 μM
T1 sequence (Q08881 1-620): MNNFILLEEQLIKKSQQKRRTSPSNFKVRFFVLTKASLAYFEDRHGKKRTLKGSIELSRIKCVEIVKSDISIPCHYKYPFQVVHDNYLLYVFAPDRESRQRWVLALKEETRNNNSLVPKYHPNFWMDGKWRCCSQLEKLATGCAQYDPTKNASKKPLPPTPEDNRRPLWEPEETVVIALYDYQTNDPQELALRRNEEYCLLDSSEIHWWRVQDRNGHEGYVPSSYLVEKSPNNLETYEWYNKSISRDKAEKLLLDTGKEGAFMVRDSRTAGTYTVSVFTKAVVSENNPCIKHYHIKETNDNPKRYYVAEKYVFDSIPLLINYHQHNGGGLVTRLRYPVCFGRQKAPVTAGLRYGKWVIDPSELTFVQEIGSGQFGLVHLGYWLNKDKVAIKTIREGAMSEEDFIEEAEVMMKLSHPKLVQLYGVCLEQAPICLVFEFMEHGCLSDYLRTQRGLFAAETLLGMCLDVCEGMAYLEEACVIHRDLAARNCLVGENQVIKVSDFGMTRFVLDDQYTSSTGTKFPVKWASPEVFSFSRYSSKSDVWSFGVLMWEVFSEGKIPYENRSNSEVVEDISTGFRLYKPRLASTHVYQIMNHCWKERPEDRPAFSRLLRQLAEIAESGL

[2] = biological target: T2, panel of more than 300 wild-type and mutant kinases (313 kinase panel) (Homo sapiens, UniProt P29320); settings: kinase EPHA3; compound at 1 μM
T2 sequence (P29320 21-983): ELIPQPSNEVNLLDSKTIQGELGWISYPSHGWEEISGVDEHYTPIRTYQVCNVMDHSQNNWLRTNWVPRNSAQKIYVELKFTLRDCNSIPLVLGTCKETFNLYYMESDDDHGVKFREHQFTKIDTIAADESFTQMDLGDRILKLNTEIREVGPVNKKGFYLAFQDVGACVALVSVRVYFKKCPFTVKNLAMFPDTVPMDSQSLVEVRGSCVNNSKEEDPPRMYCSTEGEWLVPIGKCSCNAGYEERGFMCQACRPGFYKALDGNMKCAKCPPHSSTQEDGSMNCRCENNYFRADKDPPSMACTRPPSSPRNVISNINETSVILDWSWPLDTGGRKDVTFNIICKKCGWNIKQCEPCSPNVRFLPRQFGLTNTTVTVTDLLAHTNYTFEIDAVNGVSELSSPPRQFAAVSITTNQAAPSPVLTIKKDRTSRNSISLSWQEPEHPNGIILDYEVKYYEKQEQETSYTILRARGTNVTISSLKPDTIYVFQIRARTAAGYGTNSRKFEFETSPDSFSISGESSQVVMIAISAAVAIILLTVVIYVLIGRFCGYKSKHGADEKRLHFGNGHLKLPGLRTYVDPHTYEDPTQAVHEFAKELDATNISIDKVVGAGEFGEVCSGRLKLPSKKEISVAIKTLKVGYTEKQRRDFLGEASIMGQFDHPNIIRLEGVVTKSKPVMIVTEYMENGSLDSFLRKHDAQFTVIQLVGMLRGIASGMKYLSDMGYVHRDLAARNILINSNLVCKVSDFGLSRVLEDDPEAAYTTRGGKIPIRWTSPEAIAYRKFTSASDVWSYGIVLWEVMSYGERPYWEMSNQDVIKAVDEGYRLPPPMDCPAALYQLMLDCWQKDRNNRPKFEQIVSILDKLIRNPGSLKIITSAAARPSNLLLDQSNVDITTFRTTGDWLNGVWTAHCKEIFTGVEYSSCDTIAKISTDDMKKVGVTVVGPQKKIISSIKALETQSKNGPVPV

[3] = biological target: panel of more than 300 wild-type and mutant kinases (313 kinase panel) (Homo sapiens, UniProt P48730); settings: kinase CK1δ; 1 μM compound
[4] = biological target: panel of more than 300 wild-type and mutant kinases (313 kinase panel) (Homo sapiens, UniProt Q96RG2); settings: kinase PASK; 1 μM
panel of more than 300 wild-type and mutant kinases (313 kinase panel) (Homo sapiens, UniProt Q96RG2), sequence (Q96RG2 whole entry, change not shown): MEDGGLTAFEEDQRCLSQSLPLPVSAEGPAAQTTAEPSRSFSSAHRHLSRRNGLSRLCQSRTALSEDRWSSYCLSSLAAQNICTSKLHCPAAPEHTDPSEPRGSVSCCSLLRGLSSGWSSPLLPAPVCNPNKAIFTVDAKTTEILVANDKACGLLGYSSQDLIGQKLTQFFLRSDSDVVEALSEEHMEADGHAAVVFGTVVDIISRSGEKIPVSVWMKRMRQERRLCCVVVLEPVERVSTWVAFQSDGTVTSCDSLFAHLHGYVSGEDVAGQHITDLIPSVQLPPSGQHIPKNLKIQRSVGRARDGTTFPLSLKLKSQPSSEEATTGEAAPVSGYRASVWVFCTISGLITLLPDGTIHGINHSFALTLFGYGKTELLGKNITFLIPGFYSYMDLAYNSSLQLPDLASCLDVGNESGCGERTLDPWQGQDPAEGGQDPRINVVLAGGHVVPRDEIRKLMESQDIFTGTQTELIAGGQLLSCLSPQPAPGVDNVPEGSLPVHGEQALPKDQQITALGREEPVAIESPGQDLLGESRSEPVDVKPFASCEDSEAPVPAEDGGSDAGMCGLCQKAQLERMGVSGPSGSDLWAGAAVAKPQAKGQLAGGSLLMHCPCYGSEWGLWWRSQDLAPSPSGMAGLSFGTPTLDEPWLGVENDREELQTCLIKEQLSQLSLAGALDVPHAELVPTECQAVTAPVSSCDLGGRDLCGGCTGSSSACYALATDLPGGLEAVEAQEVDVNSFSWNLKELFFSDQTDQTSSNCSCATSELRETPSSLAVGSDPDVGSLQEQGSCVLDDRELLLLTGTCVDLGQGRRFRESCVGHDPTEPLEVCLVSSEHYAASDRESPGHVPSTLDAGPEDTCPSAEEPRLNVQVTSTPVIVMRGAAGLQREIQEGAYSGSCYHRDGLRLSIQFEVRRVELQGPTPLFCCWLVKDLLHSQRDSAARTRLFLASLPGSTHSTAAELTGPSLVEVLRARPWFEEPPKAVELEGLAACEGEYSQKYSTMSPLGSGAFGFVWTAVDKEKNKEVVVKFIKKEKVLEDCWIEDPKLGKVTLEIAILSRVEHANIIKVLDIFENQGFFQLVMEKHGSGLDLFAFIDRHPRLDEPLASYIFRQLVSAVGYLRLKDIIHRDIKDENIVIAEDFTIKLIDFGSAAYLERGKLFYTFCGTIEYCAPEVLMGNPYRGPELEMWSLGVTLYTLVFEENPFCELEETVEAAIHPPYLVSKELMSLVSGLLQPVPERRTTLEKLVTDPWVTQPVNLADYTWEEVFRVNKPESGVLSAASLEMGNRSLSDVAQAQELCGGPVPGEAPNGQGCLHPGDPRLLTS

[5] = biological target: panel of more than 300 wild-type and mutant kinases (313 kinase panel) (Homo sapiens, UniProt P45983); settings: kinase JNK1; compound at 1 μM
panel of more than 300 wild-type and mutant kinases (313 kinase panel) (Homo sapiens, UniProt P45983), sequence (P45983 whole entry, change not shown): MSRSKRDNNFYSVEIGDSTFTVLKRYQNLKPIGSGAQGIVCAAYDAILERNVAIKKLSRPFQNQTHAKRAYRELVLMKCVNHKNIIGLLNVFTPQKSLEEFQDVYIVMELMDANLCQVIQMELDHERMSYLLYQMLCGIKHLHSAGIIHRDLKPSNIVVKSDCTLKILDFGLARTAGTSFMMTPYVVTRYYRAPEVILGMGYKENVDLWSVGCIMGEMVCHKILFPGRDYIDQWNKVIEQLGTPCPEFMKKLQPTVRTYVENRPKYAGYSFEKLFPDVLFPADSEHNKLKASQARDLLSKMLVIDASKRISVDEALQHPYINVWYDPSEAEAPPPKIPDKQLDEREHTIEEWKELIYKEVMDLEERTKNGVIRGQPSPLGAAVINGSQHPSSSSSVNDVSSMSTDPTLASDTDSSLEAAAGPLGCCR

[6] = biological target: panel of more than 300 wild-type and mutant kinases (313 kinase panel) (Homo sapiens, UniProt P50613); settings: kinase CDK7/CycH/MAT1; 1 μM compound
panel of more than 300 wild-type and mutant kinases (313 kinase panel) (Homo sapiens, UniProt P50613), sequence (P50613 whole entry, change not shown): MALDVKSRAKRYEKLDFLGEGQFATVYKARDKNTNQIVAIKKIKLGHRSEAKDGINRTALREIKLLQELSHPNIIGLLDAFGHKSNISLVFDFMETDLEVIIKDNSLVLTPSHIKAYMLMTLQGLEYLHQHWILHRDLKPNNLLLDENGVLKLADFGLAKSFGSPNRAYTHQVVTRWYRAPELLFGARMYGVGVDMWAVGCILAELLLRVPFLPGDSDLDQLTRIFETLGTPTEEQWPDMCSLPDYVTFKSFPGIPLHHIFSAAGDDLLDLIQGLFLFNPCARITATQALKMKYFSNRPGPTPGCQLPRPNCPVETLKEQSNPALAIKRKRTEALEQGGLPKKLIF

[7] = biological target: panel of more than 300 wild-type and mutant kinases (313 kinase panel) (Homo sapiens, UniProt Q04759); settings: kinase PKCθ; 1 μM
panel of more than 300 wild-type and mutant kinases (313 kinase panel) (Homo sapiens, UniProt Q04759), sequence (Q04759 whole entry, change not shown): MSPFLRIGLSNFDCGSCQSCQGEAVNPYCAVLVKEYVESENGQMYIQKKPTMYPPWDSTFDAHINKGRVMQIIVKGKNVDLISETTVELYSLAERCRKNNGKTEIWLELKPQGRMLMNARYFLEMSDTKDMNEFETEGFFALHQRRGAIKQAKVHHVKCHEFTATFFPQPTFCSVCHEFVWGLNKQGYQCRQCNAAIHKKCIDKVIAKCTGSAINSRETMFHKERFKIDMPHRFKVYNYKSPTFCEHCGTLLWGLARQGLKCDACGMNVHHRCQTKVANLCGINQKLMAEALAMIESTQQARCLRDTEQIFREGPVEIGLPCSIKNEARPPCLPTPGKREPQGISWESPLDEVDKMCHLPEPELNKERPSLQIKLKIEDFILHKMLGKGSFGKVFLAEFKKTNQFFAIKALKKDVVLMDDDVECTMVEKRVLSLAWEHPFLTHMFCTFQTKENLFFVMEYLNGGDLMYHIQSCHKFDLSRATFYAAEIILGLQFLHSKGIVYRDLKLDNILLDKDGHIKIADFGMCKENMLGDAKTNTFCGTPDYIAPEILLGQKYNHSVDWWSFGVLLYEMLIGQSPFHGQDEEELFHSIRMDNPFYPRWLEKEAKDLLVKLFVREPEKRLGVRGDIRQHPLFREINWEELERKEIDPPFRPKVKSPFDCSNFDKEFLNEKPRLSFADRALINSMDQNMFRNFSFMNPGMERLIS

[8] = biological target: T3, panel of more than 300 wild-type and mutant kinases (313 kinase panel) (Homo sapiens, UniProt O14965); settings: 1 μM compound; for %-inhibition, AurA/TPX2: kinase AurA/TPX2; for %-inhibition, AurA: kinase AurA
T3 sequence (O14965 1-403): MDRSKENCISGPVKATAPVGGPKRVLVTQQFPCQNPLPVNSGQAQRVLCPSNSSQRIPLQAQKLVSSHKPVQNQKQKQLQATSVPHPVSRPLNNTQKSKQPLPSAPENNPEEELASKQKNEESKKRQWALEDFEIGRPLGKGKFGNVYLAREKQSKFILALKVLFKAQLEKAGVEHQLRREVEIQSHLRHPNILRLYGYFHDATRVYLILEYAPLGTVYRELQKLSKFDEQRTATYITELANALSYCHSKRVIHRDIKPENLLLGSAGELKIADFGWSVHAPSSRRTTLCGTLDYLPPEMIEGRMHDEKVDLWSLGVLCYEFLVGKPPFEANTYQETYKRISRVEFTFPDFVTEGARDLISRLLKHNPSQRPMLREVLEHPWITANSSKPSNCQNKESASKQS

[9] = biological target: panel of more than 300 wild-type and mutant kinases (313 kinase panel) (Homo sapiens, UniProt P17612); settings: kinase PKACα; 1 μM

| SMILES | %-inhibition of ITK [1] [%] | %-inhibition of EPHA3 [2] [%] | %-inhibition, CK1δ [3] [%] | %-inhibition of PASK [4] [%] | %-inhibition of JNK1 [5] [%] | %-inhibition, CDK7/CycH/MAT1 [6] [%] | %-inhibition of PKCθ [7] [%] | %-inhibition, AurA/TPX2 [8] [%] | %-inhibition, AurA [8] [%] | %-inhibition of PKACα [9] [%] |
| --- | --- | --- | --- | --- | --- | --- | --- | --- | --- | --- |
| CC(C)(C)c1nc(-c2cccc(NS(=O)(=O)c3c(F)cccc3F)c2F)c(-c2ccnc(N)n2)s1 [dabrafenib] | 49 | 18 | 8.51 | 1.12 | -1.12 |  |  |  |  |  |
| CCCS(=O)(=O)Nc1ccc(F)c(C(=O)c2c[nH]c3ncc(-c4ccc(Cl)cc4)cc23)c1F [vemurafenib] | 3 | -7.52 | -3 | 2.35 | 1.47 | 0.137 | -3 | -2.59 | 23 | -4 |
| Cc1nc(Nc2ncc(C(=O)Nc3c(C)cccc3Cl)s2)cc(N2CCN(CCO)CC2)n1 [dasatinib] |  |  |  |  |  |  |  | 22 |  | 0.736 |
| C[C@@H](Oc1cc(-c2cnn(C3CCNCC3)c2)cnc1N)c1c(Cl)ccc(F)c1Cl [crizotinib] | 63 | 19 | 9 | 1 | 0.431 | 58 | -3 |  |  | -6 |
| Cc1ccc(C(=O)Nc2ccc(CN3CCN(C)CC3)c(C(F)(F)F)c2)cc1C#Cc1cnc2cccnn12 [ponatinib] | 86 | 102 |  | 25 |  | 9 | 0.0638 | -3.42 | 9 |  |
| O=S(=O)(c1cccc2cnccc12)N1CCCNCC1 [fasudil] | -9 | -7 | -3.4 | 2.25 | -5.43 | 7.49 | 13 | -1.11 | -2 |  |
| COc1cc(Nc2c(C#N)cnc3cc(OCCCN4CCN(C)CC4)c(OC)cc23)c(Cl)cc1Cl [bosutinib] | 13 | 67 |  | -0.0941 |  | -4.35 | 84 |  |  | 58 |
| CO[C@H]1C[C@@H]2CC[C@@H](C)[C@@](O)(O2)C(=O)C(=O)N2CCCC[C@H]2C(=O)O[C@H]([C@H](C)C[C@@H]2CC[C@@H](OCCO)[C@H](OC)C2)CC(=O)[C@H](C)/C=C(\C)[C@@H](O)[C@@H](OC)C(=O)[C@H](C)C[C@H](C)/C=C/C=C/C=C/1C [everolimus] | -3.61 | -20 | -4.27 | -9 | -5 | -6 | -8 | -4.51 | 3.74 | -6 |
| Cc1ccc(Nc2nccc(N(C)c3ccc4c(C)n(C)nc4c3)n2)cc1S(N)(=O)=O [pazopanib] | 28 | 10 | 1.13 | -2.41 |  | 9 | -3.47 |  |  | 2 |
| CNC(=O)c1cc(Oc2ccc(NC(=O)Nc3ccc(Cl)c(C(F)(F)F)c3)c(F)c2)ccn1 [regorafenib] | 2.43 | 80 | -6 | 0.282 | -1.47 | -3 | -7.47 | -4 | 7 | -5.47 |
| CC(=O)Nc1cccc(-n2c(=O)n(C3CC3)c(=O)c3c(Nc4ccc(I)cc4F)n(C)c(=O)c(C)c32)c1 [trametinib] | -7.56 | -6 | 0.365 | -0.187 | -4.68 | -6 | 0.388 | -5.37 | -2 | 8.52 |
| CCN(CC)CCNC(=O)c1c(C)[nH]c(/C=C2\C(=O)Nc3ccc(F)cc32)c1C [sunitinib] |  |  | 32 |  |  |  |  | 72 | 81 |  |
| COc1cc2c(Nc3ccc(Br)cc3F)ncnc2cc1OCC1CCN(C)CC1 [vandetanib] | 20 | 57 | 6 | -4.23 | -0.604 | -4.26 | -0.702 |  |  | 1.29 |
